Consider 4 compounds from patent US20090118253A1, “COMPOSITIONS AND METHODS FOR TREATING DYSFUNCTIONAL UTERINE BLEEDING” (REPROS THERAPEUTICS INC., priority 2007, published 2009).

Series [1] concerns progesterone-induced endometrial glandular proliferation in rabbit uterus. As to the kind of experiment: anti-McGinty and anti-Clauberg assays in the rabbit uterus. The class given is in vivo. To be noted: for rabbit Biol. Act.: average of anti-McGinty and anti-Clauberg results relative to CDB-2914 (=1.00). An excerpt:
Also given in Table 1 are the relative biological activities of the same compounds in the rabbit uterus by the anti-McGinty and anti-Clauberg assays. Compound CDB-2914 (listed at the end of the Table) was used as the control or reference compound (rabbit Biological Activity=1.00) for these experiments because results of experiments using CDB-2914 have been published before (Hild-Petito et al., 1996; Passaro et al., 1997; Reel et al., 1998; Lamer et al., 2000). For the anti-McGinty test, immature female rabbits received a subcutaneous injection of 5 μg estradiol in 10% ethanol/sesame oil daily for 6 consecutive days. On day 7, animals underwent sterile abdominal surgery to ligate a 3-4 cm segment of both uterine horns. The test compound in appropriate solvent was injected intraluminally into the ligated segment of one uterine horn and vehicle alone into the other. A stimulating dose of progesterone (267 μg/day) was administered subcutaneously to each rabbit daily for the next three days to induce endometrial proliferation. All animals were sacrificed at day 10 for removal of the uterus where a segment central to the ligatures was removed and fixed in 10% neutral buffered formalin and submitted for histological processing. Five micron sections stained with hematoxylin and cosin were evaluated microscopically for the degree of endometrial glandular proliferation. The percent inhibition of endometrial proliferation for each rabbit was calculated and the mean of the group of five animals recorded. For the Anti-Clauberg test, immature female rabbits received a subcutaneous injection of 5 μg estradiol in 10% ethanol/sesame oil daily for 6 consecutive days. On day 7, animals received progesterone by subcutaneous injection (160 μg/day) and the experimental compound in appropriate vehicle orally or subcutaneously for five consecutive days. One group of rabbits received progesterone only. Twenty-four hours after the last dose, all animals were sacrificed for removal of the uterus which was cleaned of all fat and connective tissue, weighed to the nearest 0.2 mg and placed in 10% neutral buffered formalin for subsequent histological processing. Five micron sections stained with hematoxylin and eosin were evaluated microscopically for the degree of endometrial glandular proliferation. The percent inhibition of endometrial proliferation at each dose level of the test compound was derived by comparison with progesterone-stimulated animals alone. The data presented in Table 1 (rabbit Biol. Act.) reflects the average of the results obtained for each compound by the anti-McGinty and anti-Clauberg assays relative to CDB-2914.

The test system of series [2] is rabbit progesterone receptor (rbPR) and glucocorticoid receptor (rbGR). As to the kind of experiment: Receptor-binding assays, ratio of relative binding affinities rbPR/rbGR. To be noted: ratio of relative binding affinities (RBA = EC50 of standard/EC50 of test compound x 100) for rbPR and rbGR. How it is done: Certain antiprogestins were tested in receptor-binding assays for their ability to bind rabbit progesterone receptor (rbPR) and glucocorticoid receptor (rbGR). Briefly, cytosol containing PR or GR were prepared in TEGMD buffer (10 mM Tris, pH 7.2, 1.5 mM EDTA, 0.2 mM sodium molybdate, 10% glycerol, 1 mM DTT) from uterus or thymus, respectively, of estradiol-primed immature rabbits. For PR binding, the cytosol was incubated with 6 nM 1,2-[^3H]progesterone (50.0 Ci/mmole) and competitors were added at concentrations from 2 to 100 nM. For binding to GR, the cytosol was incubated with 6 nM 6,7-[^3H]-dexamethasone (40 Ci/mmol) and test compounds were added at concentrations from 20 to 100 nM. After overnight incubation at 4 C, bound and unbound [^3H] steroids were separated by addition of dextran-coated charcoal and centrifugation at 2100×g for 15 min at 4 C. Supernatants containing the [3H]-steroid receptor complexes were decanted into vials containing 4 ml Optifluor (Packard Instrument Co.), vortexed, equilibrated in a liquid scintillation counter for 30 minutes and then counted for 2 minutes. The EC50 (Effective Concentration) for each standard curve and each of the compound curves was determined by entering the counting data into a four parameter sigmoidal computer program (RiaSmart® Immunoassay Data Reduction Program, Packard Instrument Co., Meriden, Conn.). Relative binding affinity (RBA) for each compound was calculated using the following equation: EC50 of standard/EC50 of test compound×100. The standards for the PR and GR assays were unlabeled progesterone and dexamethasone, respectively. The results of these experiments are summarized in Table 1, as a ratio of the relative binding affinities of each compound for the rbPR and rbGR receptors (rbPR/rbGR).

The target in series [3] is T1, glucocorticoid receptor (rbGR) (Oryctolagus cuniculus, UniProt P59667).
T1 construct: cytosol containing PR or GR were prepared in TEGMD buffer; from tissue; host or cells: thymus of estradiol-primed immature rabbits (cytosol)
T1 sequence (P59667 1-772): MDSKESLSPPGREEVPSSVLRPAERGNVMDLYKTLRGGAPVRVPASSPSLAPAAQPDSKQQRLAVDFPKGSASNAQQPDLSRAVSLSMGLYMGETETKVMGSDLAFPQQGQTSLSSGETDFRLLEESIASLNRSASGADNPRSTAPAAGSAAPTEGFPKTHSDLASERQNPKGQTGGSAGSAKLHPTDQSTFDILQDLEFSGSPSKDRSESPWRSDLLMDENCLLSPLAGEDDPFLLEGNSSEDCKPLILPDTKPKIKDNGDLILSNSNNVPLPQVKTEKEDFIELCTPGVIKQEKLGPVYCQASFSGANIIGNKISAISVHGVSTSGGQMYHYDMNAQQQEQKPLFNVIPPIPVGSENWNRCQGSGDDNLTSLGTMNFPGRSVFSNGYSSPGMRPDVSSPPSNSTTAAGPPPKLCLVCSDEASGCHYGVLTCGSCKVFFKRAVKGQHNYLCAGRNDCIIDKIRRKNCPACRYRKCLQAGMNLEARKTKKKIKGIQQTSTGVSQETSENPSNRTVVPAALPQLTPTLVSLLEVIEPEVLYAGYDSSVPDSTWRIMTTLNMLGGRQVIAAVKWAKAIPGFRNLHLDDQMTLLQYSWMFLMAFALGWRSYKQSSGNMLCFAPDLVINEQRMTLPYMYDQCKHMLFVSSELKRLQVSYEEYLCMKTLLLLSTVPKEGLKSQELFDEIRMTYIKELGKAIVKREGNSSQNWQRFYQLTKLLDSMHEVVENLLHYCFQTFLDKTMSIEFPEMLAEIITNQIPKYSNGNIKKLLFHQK
As to the kind of experiment: Glucocorticoid receptor binding / anti-glucocorticoid receptor activity. Also on record: species or system rabbit. How it is done:
Certain antiprogestins were tested in receptor-binding assays for their ability to bind rabbit progesterone receptor (rbPR) and glucocorticoid receptor (rbGR). […] For PR binding, the cytosol was incubated with 6 nM 1,2-[^3H]progesterone (50.0 Ci/mmole) and competitors were added at concentrations from 2 to 100 nM. For binding to GR, the cytosol was incubated with 6 nM 6,7-[^3H]-dexamethasone (40 Ci/mmol) and test compounds were added at concentrations from 20 to 100 nM. After overnight incubation at 4 C, bound and unbound [^3H] steroids were separated by addition of dextran-coated charcoal and centrifugation at 2100×g for 15 min at 4 C. Supernatants containing the [3H]-steroid receptor complexes were decanted into vials containing 4 ml Optifluor (Packard Instrument Co.), vortexed, equilibrated in a liquid scintillation counter for 30 minutes and then counted for 2 minutes. […] The standards for the PR and GR assays were unlabeled progesterone and dexamethasone, respectively.

Another series is described as follows: Serum cortisol in rats. Type of series: in vivo, rat. The conditions noted are these: 10 mg/kg, 21 days of chronic dosing. How it is done:
These higher levels were in the range of 3-4 ug/dl (30-40 ng/ml).

A short description of series [4]: Estrogenic, androgenic, anti-estrogenic and anti-androgenic activities.
A short description of series [5]: Urinary progesterone levels (luteal phase) in cynomolgus monkeys. Type of series: in vivo, Cynomolgus monkeys (Macaca fascicularis). The conditions noted are these: n=14 per group; CDB-4124 or RU-486 oral 1.0 mg/kg/day for 36 weeks; Lupron IM once per month. As for the experimental part: Cynomolgus monkeys (Macaca fascicularis) (n=14) were treated orally for 36 weeks with CDB-4124 or RU-486 at 1.0 mg/kg/day or with placebo (control). Another group (n=14) received Lupron® IM once per month. Urinary progesterone levels were measured for each animal for one month during the middle of the study (weeks 14-17) and for the last month of the study (weeks 33-36).

Series [6] relates to Cynomolgus monkey endometrial epithelium, uterus stroma and breast. Description: TUNEL apoptosis in cynomolgus monkey tissue. The class given is in vivo, Cynomolgus monkeys (Macaca fascicularis). The conditions noted are these: week 36, percent apoptotic cells. How it is done: Apoptosis was assessed in tissue from the same animals on slides by the terminal deoxynucleotidyl transferase mediated dUTP-biotin nick end labeling (TUNEL) technique.

The nature of series [7]: Serum corticosterone in rats. The conditions noted are these: for differences in serum corticosterone between groups: CDB-4124 10 or 20 mg/kg, RU 486 10 mg/kg, progesterone 10 mg/kg.
Series [8] has as its system Cynomolgus monkey endometrial epithelia, uterus stroma and breast. Description: BrdU incorporation, tissue proliferation in cynomolgus monkeys. The class given is in vivo, Cynomolgus monkeys (Macaca fascicularis). To be noted: week 36, % cells positive for incorporation of BrdU, three animals per group. How it is done:
At week 36, three animals from each group of Example 6 were injected within 24 hours of sacrifice with the thymidine analog bromodeoxyuridine (BrdU), a marker of proliferating cells and their progeny, to assess tissue proliferation. Full thickness uterine sections were stained and examined microscopically for evidence of proliferation in terms of the % cells positive for incorporation of BrdU: […]

The nature of series [9]: Urinary estrogen levels (follicular phase) in cynomolgus monkeys. Also noted: Urinary estrogen, follicular phase, Mean: unit not given here. The class given is in vivo, Cynomolgus monkeys (Macaca fascicularis). The conditions noted are these: for Urinary estrogen, follicular phase, Mean: CDB-4124 or RU-486 oral 1.0 mg/kg/day, Lupron IM once per month. As for the experimental part: Cynomolgus monkeys (Macaca fascicularis) (n=14) were treated orally for 36 weeks with CDB-4124 or RU-486 at 1.0 mg/kg/day or with placebo (control). Another group (n=14) received Lupron® IM once per month. Urinary progesterone levels were measured for each animal for one month during the middle of the study (weeks 14-17) and for the last month of the study (weeks 33-36). The results are presented below:
Urinary estrogen levels were measured for each animal of Example 6 for one month during the middle of the study (weeks 14-17) and for the last month of the study (weeks 33-36). The follicular phase results are based on 35 baseline ovulating cycles.

Turning to `CC(=O)O[C@]1(C(C)=O)CC[C@H]2[C@@H]3CCC4=CC(=O)CCC4=C3[C@@H](c3ccc(N(C)C)cc3)C[C@@]21C` [CDB-2914, 17α-acetoxy-11β-(4-N,N-dimethylaminophenyl)-19-norpregna-4,9-dien-3,20-dione, reference compound], in series [1], the “rabbit Biol. Act.” value was found to be 1.00. In addition, the rbPR/rbGR in series [2] stood at 1.07. Besides, the “anti-glucocorticoid receptor activity / glucocorticoid receptor binding” value in series [3] was “moderately active”.
Consider `CC(=O)OCC(=O)[C@@]1(OC(C)=O)CCC2C3CCC4=CC(=O)CCC4=C3C(c3ccc(N(C)C)cc3)C[C@@]21C` (stereo partly drawn) [CDB-4059, 21-acetoxy-17α-acetoxy-11β-(4 N,N-dimethylaminophenyl)-19-norpregna-4,9-diene-3,20-dione], for which the “rabbit Biol. Act.” value in series [1] turned out to be 2.90. Moreover, the “antiprogestin activity in the rabbit uterus” value in series [1] (in comparison to RU 486 and CDB-2914) is listed as “strong antiprogestin activity”. In series [2], the rbPR/rbGR was found to be 1.89. The “levels of serum cortisol versus control group” value in “Serum cortisol in rats” is given as “significantly higher”. The “anti-glucocorticoid receptor activity / glucocorticoid receptor binding” value in [3] was “minimal anti-glucocorticoid receptor activity”. In addition, the “estrogenic, androgenic, anti-estrogenic, and anti-androgenic activities” value in series [4] is “lack estrogenic, androgenic, anti-estrogenic, and anti-androgenic activities”.
For `CC#C[C@]1(O)CC[C@H]2[C@@H]3CCC4=CC(=O)CCC4=C3[C@@H](c3ccc(N(C)C)cc3)C[C@@]21C` [RU 486, 11β-[p-(Dimethylamino)phenyl]-17β-hydroxy-17-(1-propynyl)estra-4,9-dien-3-one], in series [5], the “Decrease in luteal phase progesterone (number of animals)” value was found to be 9 and the “No decrease in luteal phase progesterone (number of animals)” value turned out to be 5. In addition, in series [6], the “Breast Apo %” value is given as 1.2 ± 0.6%, the “Uterus epithelium Apo %” value amounted to 0.5 ± 0.1% and the “Uterus stroma Apo %” value was determined as 0.5 ± 0.1%. For the same compound, the “differences in serum corticosterone between groups” value in series [7] was “No differences”. Besides, the “levels of serum cortisol versus control group” value in the series “Serum cortisol in rats” is “no significant difference”. In series [3], the “anti-glucocorticoid receptor activity / glucocorticoid receptor binding” value is listed as “moderately active”. Also, in [8], the “Breast Brdu-%” value is on record as 0.9 ± 0.3%, the “Uterus epithelium Brdu-%” value turned out to be 12.6 ± 1.8% and the “Uterus stroma Brdu-%” value came out at 3.1 ± 1.0%. For the same compound, in series [9] (Week 18), the “Follicular phase estrogen Lower?” value is recorded as “No” and the “Urinary estrogen, follicular phase, Mean” value is reported as 67.4. For the same compound, in series [9] (Week 36), the “Follicular phase estrogen Lower?” value is “No” and the “Urinary estrogen, follicular phase, Mean” value is on record as 64.8.
Take `CC(=O)[C@H]1CC[C@H]2[C@@H]3CCC4=CC(=O)CC[C@]4(C)[C@H]3CC[C@]12C` [progesterone]: the “differences in serum corticosterone between groups” value in [7] was “No differences”. For the same compound, in [7] (after 21 days of treatment, p=0.029, not verified at sacrifice), the “levels of corticosterone in animals treated with exogenous progesterone” value is reported as “lowered”.
